Assays:
[1] = tested on: Plasmodium falciparum; assay: Hit confirmation in dose-response curve in Dd2 pLDH assay, at 72h; format: functional, organism-based, Erythrocyte; design: timepoint 72 hour; settings: Plasmodium falciparum, Dd2, Erythrocyte, 72 h
[2] = tested on: Plasmodium falciparum; assay: Hit confirmation in dose-response curve in NF54 pLDH assay, at 72h; format: functional, organism-based, Erythrocyte; design: timepoint 72 hour; settings: Plasmodium falciparum, NF54, Erythrocyte, 72 h
[3] = tested on: Plasmodium falciparum; assay: Hit confirmation in dose-response curve in NF54 nanoGlo assay, at 12h; format: functional, organism-based, Erythrocyte; design: timepoint 12 hour; settings: Plasmodium falciparum, NF54, Erythrocyte, 12 h
[4] = tested on: Plasmodium falciparum; assay: Hit confirmation in dose-response curve in NF54 nanoGlo assay, at 72h; format: functional, organism-based, Erythrocyte; design: timepoint 72 hour; settings: Plasmodium falciparum, NF54, Erythrocyte, 72 h
[5] = Hit confirmation in dose-response curve in HepG2 cytotoxicity assay, at 72h; format: toxicity, cell-based, Homo sapiens; design: timepoint 72 hour; settings: human, HepG2 cells

CN(C)CC12CNCC1CN(c1ccnc3cc(Cl)ccc13)C2 (stereo not given)
IC50 [1]: 0.043 µM
IC50 [2]: 0.0309 µM
IC50 [3]: 0.0513 µM
IC50 [4]: 0.0417 µM
IC50 at 72 h [5]: > 10 µM

COc1ccc(CNCc2cc3ccccc3[nH]2)cc1CN(C)C
IC50 [1]: 2.29 µM
IC50 [2]: 3.47 µM
IC50 [3]: 5.89 µM
IC50 [4]: 3.39 µM
IC50 at 72 h [5]: > 10 µM

O=C(NCc1ccc(N2CCNCC2)c(F)c1)c1ccc(-c2noc(C(F)(F)F)n2)cc1
IC50 [1]: 2.63 µM
IC50 [2]: 2.57 µM
IC50 [3]: 6.61 µM
IC50 [4]: 2.63 µM
IC50 at 72 h [5]: > 10 µM

c1ccc(CCC23CN(Cc4ccccn4)CC2CN(Cc2ccns2)C3)cc1 (stereo not given)
IC50 [1]: 4.17 µM
IC50 [2]: 3.55 µM
IC50 [3]: 6.46 µM
IC50 [4]: 1.45 µM
IC50 at 72 h [5]: > 10 µM

COc1ccc2nc(C)cc(NCc3cccc(NC(=O)c4ccco4)c3)c2c1
IC50 [1]: 2.4 µM
IC50 [2]: 2.45 µM
IC50 [3]: 3.31 µM
IC50 [4]: 1.17 µM
IC50 at 72 h [5]: > 10 µM

Cc1cc(C)c(CN2CCN(C)CC2)cc1CNCCCn1ccnc1C
IC50 [1]: 3.39 µM
IC50 [2]: 3.89 µM
IC50 [3]: 7.41 µM
IC50 [4]: 3.89 µM
IC50 at 72 h [5]: > 10 µM

COc1ccc2nc3cc(Cl)ccc3c(O)c2c1
IC50 [1]: 2.4 µM
IC50 [2]: 1.41 µM
IC50 [3]: > 10 µM
IC50 [4]: 0.912 µM
IC50 at 72 h [5]: > 10 µM

Cc1cc(O)c(Cl)cc1-c1cccc2c(N)ccnc12
IC50 [1]: 2.04 µM
IC50 [2]: 1.48 µM
IC50 [3]: > 10 µM
IC50 [4]: 1.17 µM
IC50 at 72 h [5]: > 10 µM

COc1ccc(CCNCc2ccc3[nH]cnc3c2)c(Cl)c1
IC50 [1]: 3.47 µM
IC50 [2]: 4.47 µM
IC50 [3]: > 10 µM
IC50 [4]: 3.02 µM
IC50 at 72 h [5]: > 10 µM

CC(CNc1nc(NCC(C)N2CCOCC2)c2cc(Cl)ccc2n1)N1CCOCC1 (stereo not given)
IC50 [1]: 1.58 µM
IC50 [2]: 1.91 µM
IC50 [3]: > 10 µM
IC50 [4]: 1.74 µM
IC50 at 72 h [5]: > 10 µM

CC(C)CCOc1ccc2[nH]c(-c3cc(N4CCC[C@@H]4CS(C)(=O)=O)ccn3)cc2c1
IC50 [1]: 0.891 µM
IC50 [2]: 1.12 µM
IC50 [3]: 1.86 µM
IC50 [4]: 0.661 µM
IC50 at 72 h [5]: > 10 µM

Cc1ocnc1CNC[C@H](O)c1ccc(Cl)c(Cl)c1
IC50 [1]: 3.02 µM
IC50 [2]: 4.27 µM
IC50 [3]: 3.31 µM
IC50 [4]: 2.14 µM
IC50 at 72 h [5]: > 10 µM

Cc1ccc2nc(-c3cccc(NC(=O)c4ccc(OC(F)(F)F)c(Cl)c4)c3)[nH]c2n1
IC50 [1]: 4.37 µM
IC50 [2]: 6.46 µM
IC50 [3]: > 10 µM
IC50 [4]: 3.31 µM
IC50 at 72 h [5]: > 10 µM

COc1cc2nc(NCC3(N4CCN(C)CC4)CCCC3)cc(C)c2cc1OC
IC50 [1]: 2.24 µM
IC50 [2]: 3.47 µM
IC50 [3]: 8.51 µM
IC50 [4]: 2.14 µM
IC50 at 72 h [5]: > 10 µM

CCN1CCC(N2CCC(C(=O)NCCc3ccc(OC(F)(F)F)cc3)CC2)CC1
IC50 [1]: 3.31 µM
IC50 [2]: 3.8 µM
IC50 [3]: 6.76 µM
IC50 [4]: 3.31 µM
IC50 at 72 h [5]: > 10 µM

CN1CCC(N2CCC(NC(=O)c3ccc(S(=O)(=O)N(C)C4CCCCC4)cc3)CC2)CC1
IC50 [1]: 3.89 µM
IC50 [2]: 5.89 µM
IC50 [3]: 9.33 µM
IC50 [4]: 4.27 µM
IC50 at 72 h [5]: > 10 µM

CN1C2CCC1CC(OC(=O)C1CCC(C(=O)OC3CC4CCC(C3)N4C)(c3ccccc3)c3ccccc31)C2 (stereo not given)
IC50 [1]: 3.31 µM
IC50 [2]: 3.8 µM
IC50 [3]: 3.89 µM
IC50 [4]: 2.88 µM
IC50 at 72 h [5]: > 10 µM

O[C@@H](CNCc1ccc2c(c1)CCO2)c1ccc(F)c(F)c1
IC50 [1]: 3.72 µM
IC50 [2]: 8.32 µM
IC50 [3]: 5.62 µM
IC50 [4]: 2.29 µM
IC50 at 72 h [5]: > 10 µM

OC1(c2ccc(Cl)cc2)CCN(C[C@@H]2CCCN3CCCC[C@H]23)CC1
IC50 [1]: 3.72 µM
IC50 [2]: 4.07 µM
IC50 [3]: 7.41 µM
IC50 [4]: 3.98 µM
IC50 at 72 h [5]: > 10 µM

Brc1cccc(NCCNC2CCN(Cc3cccnc3)CC2)c1
IC50 [1]: 3.72 µM
IC50 [2]: 3.8 µM
IC50 [3]: 8.51 µM
IC50 [4]: 3.8 µM
IC50 at 72 h [5]: > 10 µM

c1ccc2c(Nc3ccc4[nH]cnc4c3)c3ccccc3nc2c1
IC50 [1]: 1.41 µM
IC50 [2]: 1.7 µM
IC50 [3]: 1.82 µM
IC50 [4]: 0.832 µM
IC50 at 72 h [5]: > 10 µM

Cn1nnc(C(=O)N2CCCCC23CCCCCC3)n1
IC50 [1]: 2.29 µM
IC50 [2]: 5.5 µM
IC50 [3]: > 10 µM
IC50 [4]: 2.24 µM
IC50 at 72 h [5]: > 10 µM

Cn1cncc1[C@@H]1CNC[C@H]1CNC(=O)c1ccccc1NC1CCCCC1
IC50 [1]: 4.17 µM
IC50 [2]: 6.76 µM
IC50 [3]: 8.13 µM
IC50 [4]: 3.89 µM
IC50 at 72 h [5]: > 10 µM

COc1ccc2c(C)cc(NCCCN3CCC[C@H](C(N)=O)C3)nc2c1
IC50 [1]: 3.02 µM
IC50 [2]: 2.69 µM
IC50 [3]: 6.76 µM
IC50 [4]: 2.19 µM
IC50 at 72 h [5]: > 10 µM

CCc1cc(Nc2ccc(N3CCOCC3)nc2)nc(-c2ccncc2)n1
IC50 [1]: 6.31 µM
IC50 [2]: 4.47 µM
IC50 [3]: > 10 µM
IC50 [4]: 3.72 µM
IC50 at 72 h [5]: > 10 µM

CNc1nc(N[C@H]2CCCN(Cc3ccc(Cl)cc3)C2)nc2c1CCC2
IC50 [1]: 2.29 µM
IC50 [2]: 2.63 µM
IC50 [3]: > 10 µM
IC50 [4]: 2.45 µM
IC50 at 72 h [5]: > 10 µM

COc1ccc2[nH]cc(C3=CCN(c4ccc5nnc(-c6ccccc6F)n5n4)CC3)c2c1
IC50 [1]: > 10 µM
IC50 [2]: 8.71 µM
IC50 [3]: > 10 µM
IC50 [4]: 2.69 µM
IC50 at 72 h [5]: > 10 µM

CCOc1cc2nccc(N3C[C@H]4CN(C)C[C@H]4C3)c2cc1OCC
IC50 [1]: 0.525 µM
IC50 [2]: 0.562 µM
IC50 [3]: 0.933 µM
IC50 [4]: 0.575 µM
IC50 at 72 h [5]: > 10 µM

CCOc1cccc(N2CCN(C(=O)c3cc(-c4ccc(F)cc4)[nH]n3)CC2)n1
IC50 [1]: > 10 µM
IC50 [2]: > 10 µM
IC50 [3]: 2.95 µM
IC50 [4]: 5.01 µM
IC50 at 72 h [5]: > 10 µM

CN1CCN(CCNC2CCN3CCCC3C2)C(c2ccccc2)C1 (stereo not given)
IC50 [1]: 3.8 µM
IC50 [2]: 4.27 µM
IC50 [3]: > 10 µM
IC50 [4]: 4.17 µM
IC50 at 72 h [5]: > 10 µM

COC(CN(Cc1nc(N)nc(Nc2ccc(C)cc2)n1)Cc1nc(N)nc(Nc2ccc(C)cc2)n1)OC
IC50 [1]: 1.45 µM
IC50 [2]: 3.47 µM
IC50 [3]: > 10 µM
IC50 [4]: 0.912 µM
IC50 at 72 h [5]: > 10 µM

O=C(NCc1cccc(-c2cccnc2)c1)N[C@H]1CCN(C2CCCCC2)C1
IC50 [1]: 4.47 µM
IC50 [2]: 1.29 µM
IC50 [3]: > 10 µM
IC50 [4]: 3.98 µM
IC50 at 72 h [5]: > 10 µM

Cc1cccc(N2CCC(NCc3cc(C)cc(CN4CCN(C)CC4)c3C)CC2)c1
IC50 [1]: 3.02 µM
IC50 [2]: 2.95 µM
IC50 [3]: 5.89 µM
IC50 [4]: 3.09 µM
IC50 at 72 h [5]: > 10 µM

Cc1cnccc1NCCNCc1cnc(N2CCCCC2)nc1
IC50 [1]: 2.14 µM
IC50 [2]: 3.39 µM
IC50 [3]: > 10 µM
IC50 [4]: 2.51 µM
IC50 at 72 h [5]: > 10 µM

Cc1cc(NCCCN2CCC[C@H](O)C2)c2cc(F)ccc2n1
IC50 [1]: 2.69 µM
IC50 [2]: 3.89 µM
IC50 [3]: 7.24 µM
IC50 [4]: 3.39 µM
IC50 at 72 h [5]: > 10 µM

CNc1nc(C)cc(N[C@@H]2COc3ccccc3C2)n1
IC50 [1]: 3.8 µM
IC50 [2]: 5.25 µM
IC50 [3]: > 10 µM
IC50 [4]: 3.39 µM
IC50 at 72 h [5]: > 10 µM

FC(F)(F)c1ccc(N2CCC[C@H](NC3CCN(Cc4ccco4)CC3)C2)nc1
IC50 [1]: 8.13 µM
IC50 [2]: 7.59 µM
IC50 [3]: > 10 µM
IC50 [4]: 7.59 µM
IC50 at 72 h [5]: > 10 µM

CCN(Cc1cnn(-c2cccc(Cl)c2)c1)CC1CCN(C2CCN(C)CC2)CC1
IC50 [1]: 1.23 µM
IC50 [2]: 1.35 µM
IC50 [3]: 2.69 µM
IC50 [4]: 1.55 µM
IC50 at 72 h [5]: > 10 µM
